Experimental data as given in patent publication US6503552B1, “Adding flavidin to a composition as an anti-oxidant” (Council of Scientific and Industrial Research, priority 2000, dated 2003).

Experiment: antioxidant activity in β-carotene-linoleate system (bleaching of β-carotene)
Type: biochemical
Conditions: for bleaching time of β-carotene: different concentrations, controls (no additive) decolorized within 120 min; for antioxidant activity: 120 min incubation at 50° C.
Description: In another embodiment of the present invention, evaluation of the antioxidant activity of flavidin has been carried out employing the procedure of Hiddgi et. al. (Phytochem, 37, 1585, 1994) with minor modifications said method comprises the following steps: […]
i) preparing assay reagent of β-carotene in chloroform by mixing linoleic acid and 200 mg of Tween 40 (polyoxyethylene sorbitan monopalmitate), ii) warming polyoxyethylene sorbitan monopalmitate (Tween 40) at a temperature of about 50° C. in a water bath, iii) removing chloroform from assay reagent at a temperature of about 40° C. under vacuum using a rotary evaporator, iv) diluting the resulting solution with triple distilled water and mixing the resulting emulsion well for one minute, v) further diluting the resulting emulsion with oxygenated water, vi) transferring aliquots of the reagent as in step (v) into tubes containing 0.2 ml of desired amount of antioxidant in ethanol, vii) keeping a control of 0.2 ml of ethanol and 4 ml of reagent as prepared in step (v). viii) immediately taking optical density of all sample (t=0) and also taking the O.D at 15 min. interval for 2 hr. (t=120), ix) incubating the tubes in water bath at a temperature of about 50° C. between each measurement taken, and x) measuring the color till the color of β-carotene disappears.
The procedure of Hiddgo et al., (Phytochemistry, 37, 1585, 1994) was followed for testing of antioxidant activity of the flavidin with minor modification. The assay reagent was prepared as follows: 0.2 mg of β-carotene in 0.5 ml of chloroform was added to 20 mg of linoleic acid and 200 mg of Tween 40 (polyoxyethylene sorbitan monopalmitate) were mixed. Tween 40 was warmed in a water bath at 50° C. before use. The chloroform was removed at 40° C. under vacuum using a rotary evaporator. The resulting solution was immediately diluted with 10 ml of triple-distilled water and the emulsion was mixed well for 1 min. The emulsion was further diluted with 40 ml oxygenated water. Four ml aliquots of this reagent were transferred into different tubes containing 0.2 ml of the desired amount of antioxidant in ethanol. A control consisting of 0.2 ml of ethanol and 4 ml of emulsion was prepared. Optical density of all samples were taken immediately (t=0) and at 15 min intervals for 2 h (t=120). The tubes were placed in a water bath at 50° C. between measurements. All determinations were preformed in duplicate. Measurement of color was recorded until the color of β-carotene disappears.
The antioxidant activity (AA) of the isolated compound was evaluated in terms of bleaching the β-carotene using the formula of Hiddgo et al., (Phytochemistry, 37, 1585, 1994). AA=100[1−(Ao−At)/(A^oo−A^ot)] where Ao and A^o are the absorbance measured at the beginning of the incubation for flavidin and the control, respectively, and At and A^ot are the absorbance measured in the presence and absence of the flavidin after incubation for 120 min.

SMILES | bleaching time of β-carotene | antioxidant activity (10 ppm) [%] | antioxidant activity (25 ppm) [%] | antioxidant activity (50 ppm, maximum activity) [%]
COc1ccc(O)c(C(C)(C)C)c1 [BHA, butylated hydroxy anisole, reference compound] | enhanced | – | – | –
Oc1cc2c3c(c1)COc1cc(O)cc(c1-3)CC2 [flavidin, 2,7-dihydroxy 9,10-dihydrophenanthro-4,5 bcd-pyran] | enhanced | 68.5 | 79 | 90.2
